Reference: ChEMBL document CHEMBL3045073, “Synthesis of -amino carbonyl derivatives of coumarin and benzofuran and evaluation of their biological activity” (Med Chem Res, 2013)
≈ marks a conversion by molar mass, not a printed value. Calls of active or inactive are those of the source. The calls are words filed in the database; no cut-off is given here.

Legend:
Aspergillus flavus [1] = test: Antifungal activity against Aspergillus flavus assessed as growth inhibition after 72 hr by serial broth dilution method; assay type: functional
Candida albicans [2] = test: Antifungal activity against Candida albicans MTCC227 assessed as growth inhibition after 72 hr by serial broth dilution method
Pseudomonas aeruginosa [3] = test: Antibacterial activity against Pseudomonas aeruginosa ATCC 27853 assessed as growth inhibition at 50 mg/mL after 24 hr by agar well diffusion method; assay type: functional; settings: for zone of inhibition at 50000 µg/mL: ATCC 27853, 24 h, read-out: IZ
Escherichia coli [4] = test: Antibacterial activity against Escherichia coli ATCC 25922 assessed as growth inhibition at 50 mg/mL after 24 hr by agar well diffusion method; settings: for zone of inhibition at 50000 µg/mL: ATCC 25922, 24 h, read-out: IZ
Aspergillus flavus [5] = test: Antifungal activity against Aspergillus flavus assessed as growth inhibition at 50 mg/mL after 72 hr by agar well diffusion method; assay type: functional; settings: for zone of inhibition at 50000 µg/mL: read-out: IZ
[6] = tested on: Chrysosporium keratinophilum; test: Antifungal activity against Chrysosporium keratinophilum assessed as growth inhibition after 72 hr by serial broth dilution method; assay type: functional
[7] = Metal chelating activity of the compound assessed as ferrous ion complex formation at 0.5 to 2 mg/mL after 10 min by spectrophotometric analysis relative to EDTA
Staphylococcus aureus [8] = test: Antibacterial activity against Staphylococcus aureus ATCC 25923 assessed as growth inhibition at 50 mg/mL after 24 hr by agar well diffusion method; settings: for zone of inhibition at 50000 µg/mL: ATCC 25923, 24 h, read-out: IZ
[9] = tested on: Radical scavenging activity; test: Antioxidant activity assessed as DPPH free radical scavenging activity at 100 ug/mL after 10 min UV-Vis spectrophotometric analysis relative to control; assay type: functional
Staphylococcus aureus [10] = test: Antibacterial activity against Staphylococcus aureus ATCC 25923 assessed as growth inhibition after 24 hr by serial broth dilution method
[11] = tested on: Chrysosporium keratinophilum; test: Antifungal activity against Chrysosporium keratinophilum assessed as growth inhibition at 50 mg/mL after 72 hr by agar well diffusion method; assay type: functional; settings: for zone of inhibition at 50000 µg/mL: read-out: IZ
Candida albicans [12] = test: Antifungal activity against Candida albicans MTCC227 assessed as growth inhibition at 50 mg/mL after 72 hr by agar well diffusion method; settings: for zone of inhibition at 50000 µg/mL: MTCC227, 72 h, read-out: IZ
Escherichia coli [13] = test: Antibacterial activity against Escherichia coli ATCC 25922 assessed as growth inhibition after 24 hr by serial broth dilution method
Pseudomonas aeruginosa [14] = test: Antibacterial activity against Pseudomonas aeruginosa ATCC 27853 assessed as growth inhibition after 24 hr by serial broth dilution method; assay type: functional
Candida albicans [15] = test: Antifungal activity against Candida albicans NCPF 3179 assessed as growth inhibition at 0.5 to 1 mg/mL after 72 hr by agar well diffusion method; assay type: functional
Aspergillus flavus [16] = test: Antifungal activity against Aspergillus flavus assessed as growth inhibition at 0.5 to 1 mg/mL after 72 hr by agar well diffusion method; assay type: functional
[17] = tested on: Chrysosporium keratinophilum; test: Antifungal activity against Chrysosporium keratinophilum assessed as growth inhibition at 0.5 to 1 mg/mL after 72 hr by agar well diffusion method; assay type: functional

Row | SMILES | MIC (Aspergillus flavus [1]) | MIC (Candida albicans [2]; MTCC227, 72 h) | zone of inhibition at 50000 µg/mL (Pseudomonas aeruginosa [3]) | zone of inhibition at 50000 µg/mL (Escherichia coli [4]) | zone of inhibition at 50000 µg/mL (Aspergillus flavus [5]) | MIC [6] | Activity [7] | zone of inhibition at 50000 µg/mL (Staphylococcus aureus [8]) | Activity [9] | MIC (Staphylococcus aureus [10]; ATCC 25923, 24 h) | zone of inhibition at 50000 µg/mL [11] | zone of inhibition at 50000 µg/mL (Candida albicans [12]) | MIC (Escherichia coli [13]; ATCC 25922, 24 h) | MIC (Pseudomonas aeruginosa [14]; ATCC 27853, 24 h) | growth inhibition (GI) [11] | also measured
1 | O=C(O)c1ccc(NC(CC(=O)c2cc3ccccc3o2)c2ccc(F)cc2)cc1 (stereo not drawn) | 130 mg/L (≈ 322 µM) | 100 mg/L (≈ 248 µM) | 9 mm | 5 mm | 9 mm | 150 mg/L (≈ 372 µM) | Active | 6 mm | 36.2% | 140 mg/L (≈ 347 µM) | 12 mm | 18 mm | 300 mg/L (≈ 744 µM) | 140 mg/L (≈ 347 µM) |  | 
2 | O=C(CC(Nc1ccccc1)c1ccccc1)c1cc2ccccc2oc1=O (stereo not drawn) | 450 mg/L (≈ 1220 µM) | 300 mg/L (≈ 812 µM) | 1 mm | 4 mm | 4 mm | 550 mg/L (≈ 1490 µM) |  | 5 mm | 25.3% | 500 mg/L (≈ 1350 µM) | 3 mm | 7 mm | 500 mg/L (≈ 1350 µM) | 350 mg/L (≈ 947 µM) |  | 
3 | Cc1ccc(C(CC(=O)c2cc3ccccc3oc2=O)Nc2ccc(C(=O)O)cc2)cc1 (stereo not drawn) | 450 mg/L (≈ 1050 µM) | 500 mg/L (≈ 1170 µM) | 3 mm | 1 mm | 1 mm | inactive | Active | 3 mm | 52.5% | 500 mg/L (≈ 1170 µM) |  | 1 mm | 500 mg/L (≈ 1170 µM) | 500 mg/L (≈ 1170 µM) | inactive | 
4 | OC(Cn1cncn1)(Cn1cncn1)c1ccc(F)cc1F [FLUCONAZOLE] |  |  |  |  |  |  |  |  |  |  |  |  |  |  |  | inhibition zone (IZ) (Candida albicans [15]): 20 mm; MIC (Candida albicans [15]; Candida albicans, NCPF 3179, 72 h): 40 mg/L (≈ 131 µM); inhibition zone (IZ) (Aspergillus flavus [16]): 10 mm; MIC (Aspergillus flavus [16]; Aspergillus flavus, 72 h): 40 mg/L (≈ 131 µM); inhibition zone (IZ) [17]: 14 mm; MIC ([17]; Chrysosporium keratinophilum, 72 h): 40 mg/L (≈ 131 µM)
5 | CN(C)c1ccc(C(CC(=O)c2cc3ccccc3oc2=O)Nc2ccc(C(=O)O)cc2)cc1 (stereo not drawn) | 450 mg/L (≈ 986 µM) | 500 mg/L (≈ 1100 µM) | 3 mm | 3 mm | 1 mm | inactive |  | 2 mm | 12.3% | 550 mg/L (≈ 1200 µM) |  | 1 mm | 500 mg/L (≈ 1100 µM) | 400 mg/L (≈ 876 µM) | inactive | 
6 | CN(C)c1ccc(C(CC(=O)c2cc3ccccc3o2)Nc2ccc(C(=O)O)cc2)cc1 (stereo not drawn) | 40 mg/L (≈ 93.4 µM) | 50 mg/L (≈ 117 µM) | 10 mm | 13 mm | 10 mm | 40 mg/L (≈ 93.4 µM) | Active | 11 mm | 67.2% | 60 mg/L (≈ 140 µM) | 12 mm | 19 mm | 50 mg/L (≈ 117 µM) | 40 mg/L (≈ 93.4 µM) |  | 
7 | O=C(O)c1ccc(NC(CC(=O)c2cc3ccccc3o2)c2ccc([N+](=O)[O-])cc2)cc1 (stereo not drawn) | 550 mg/L (≈ 1280 µM) | 450 mg/L (≈ 1050 µM) | 3 mm | 3 mm | 3 mm | 500 mg/L (≈ 1160 µM) |  | 3 mm | 29.1% | 400 mg/L (≈ 929 µM) | 2 mm | 2 mm | 500 mg/L (≈ 1160 µM) | 500 mg/L (≈ 1160 µM) |  | 
8 | Cc1ccc(C(CC(=O)c2cc3ccccc3o2)Nc2ccc(C(=O)O)cc2)cc1 (stereo not drawn) | inactive |  |  |  |  | inactive |  |  | 54.1% |  |  |  |  |  | inactive | MIC (Candida albicans [2]): inactive; growth inhibition (GI) (Pseudomonas aeruginosa [3]): inactive; growth inhibition (GI) (Escherichia coli [4]): inactive; growth inhibition (GI) (Aspergillus flavus [5]): inactive; growth inhibition (GI) (Staphylococcus aureus [8]): inactive; MIC (Staphylococcus aureus [10]): inactive; growth inhibition (GI) (Candida albicans [12]): inactive; MIC (Escherichia coli [13]): inactive; MIC (Pseudomonas aeruginosa [14]): inactive
9 | O=C(O)c1ccc(NC(CC(=O)c2cc3ccccc3oc2=O)c2ccc(F)cc2)cc1 (stereo not drawn) | 230 mg/L (≈ 533 µM) | 100 mg/L (≈ 232 µM) | 12 mm | 12 mm | 10 mm | 200 mg/L (≈ 464 µM) |  | 10 mm | 35.2% | 120 mg/L (≈ 278 µM) | 12 mm | 18 mm | 100 mg/L (≈ 232 µM) | 100 mg/L (≈ 232 µM) |  | 
